What was measured:
Assay type in all cases: cell-based
human PBMC [1] = assay: Human PBMC TNF-α secretion, ELISA; conditions: for dose-response of TNF-α secretion: Example 2, 10, 3 or 1 μg RNA with 10 μg DOTAP per 200 μl well
Protocol: (§1) Human peripheral blood mononuclear cells (PBMCs) were isolated from healthy donors, plated at 3×10^5 cells/well, stimulated in vitro with various test and control immunostimulatory agents for 16 hours, and then analyzed by enzyme-linked immunosorbent assay (ELISA) using matched antibody pairs from BD-Pharmingen for secreted cytokines IL-12 p40 and TNF-α, performed according to the manufacturer's protocol. Also included were certain negative controls, including medium alone and DOTAP (10 μg/200 μl culture well; “Liposomes”) alone. The control immunostimulatory agents included the imidazoquinolone R-848 (2 μg/ml), lipopolysaccharide (LPS; 1 μg/ml), Pam3Cys (5 μg/ml), poly IC (50 μg/ml), and CpG DNA (50 μg/ml). These are reported ligands for TLR7, TLR4, TLR2, TLR3, and TLR9, respectively. Test immunostimulatory agents included the following RNA molecules, each at 50 μg/ml, with and without DOTAP (10 μg total “with Liposomes” and “without Liposomes”, respectively): GUGUUUAC alone; GUAGGCAC alone; GUGUUUAC in combination with GUAGGCAC; GUAGGA; GAAGGCAC; CUAGGCAC; CUCGGCAC; and CCCCCCCC. These RNA oligonucleotides each contained a phosphorothioate linkage between the penultimate and 3′ terminal nucleoside.
(§2) The experiments described in the preceding example were repeated with varied concentrations of RNA oligonucleotides in order to assess the dose-response behavior of human PBMCs to G,U-containing RNA oligonucleotides of the invention. A total of 10, 3 or 1 μg RNA was added to 10 μg DOTAP and then added to the 200 μl culture wells. After 16 hours IL-12 p40 and TNF-α ELISAs were performed as described in Example 1.
(§3) In order to investigate the possibility of using cholesteryl ester-modified RNA oligomer in place of RNA oligomer plus cationic lipid, RNA oligomer GUGUGUGU was prepared with (R 1058) and without (R 1006) a 3′ cholesteryl ester modification. These two RNA oligomers with and without DOTAP, were added over a range of concentrations to overnight cultures of human PBMC. Culture supernatants were harvested, and human TNF-α, IL-12 p40, and IFN-α were measured by ELISA using matched antibody pairs from BD-Pharmingen according to the manufacturer's protocol.
(§4) RNA oligomers GUGUGUGU, GUGUGUG, GUGUGU, GUGUG, GUGU, GUG, and GU, with and without DOTAP, were added over a range of concentrations to overnight cultures of human PBMC. Culture supernatants were harvested, and human TNF-α, IL-12 p40, and IFN-α were measured by ELISA using matched antibody pairs from BD-Pharmingen according to the manufacturer's protocol.
as §4, with “oligomers,” for “oligomers GUGUGUGU, GUGUGUG, GUGUGU, GUGUG, GUGU, GUG, and GU,”
Human PBMC were cultured overnight in the presence of added DNA:RNA conjugate, with and without DOTAP. Culture supernatants were harvested and human TNF-α, IL-6, IL-12 p40, IP-10, and IFN-α were measured by ELISA using matched antibody pairs from BD-Pharmingen according to the manufacturer's protocol.
Human PBMC were cultured overnight in the presence of various concentrations (1, 3, and 10 μg/ml) of tRNA obtained from wheat germ, bovine, yeast, and E. coli sources, added to the culture medium with and without DOTAP. Culture supernatants were harvested and human TNF-α and IL-12 p40 were measured by ELISA using matched antibody pairs from BD-Pharmingen according to the manufacturer's protocol. […] In addition, E. coli tRNA at 3 and 10 μg/ml induced minor amounts of both cytokines even without DOTAP. […]
FIG. 10 depicts the responsiveness of human PBMC to stringent response factor (SRF). SRF is produced by rapidly growing bacteria (in this case Listeria monocytogenes) in rich media until their late log phase. The bacteria were pelleted and resuspended in an equal volume of PBS for 24 h. The mixture is centrifuged to remove the bacteria. […]

human PBMC [2] = assay: Human PBMC IL-12 p40 secretion, ELISA; conditions: for dose-response of IL-12 p40 secretion: Example 2, FIG. 3, 10, 3 or 1 μg RNA with 10 μg DOTAP per 200 μl well; for EC50 / IL-12 p40 max: Table 2, oligomer length, human PBMC overnight, including DOTAP
Protocol: as §1
as §2, with “1. […]” for “1.”
as §4, with “protocol. […]” for “protocol.”

human PBMC [3] = assay: Human PBMC IFN-α secretion, ELISA
Protocol: as §3, §4
as §4, with “oligomers,” for “oligomers GUGUGUGU, GUGUGUG, GUGUGU, GUGUG, GUGU, GUG, and GU,”
In like manner, an all-phosphodiester 40-mer capable of forming a stem-loop structure and having a base sequence as provided by 5′-[…]-3′ (R 1041; SEQ ID NO:10) was synthesized and tested in overnight culture with human PBMC.

[4] = Table 2, oligomer length, human PBMC overnight, including DOTAP
[5] = Table 2, oligomer length, human PBMC overnight, including DOTAP, read-out: IFN-α EC50
[6] = Table 2, oligomer length, human PBMC overnight, including DOTAP, read-out: TNF-α EC50
[7] = Table 1, human PBMC overnight culture, with DOTAP
[8] = Table 1, human PBMC overnight culture, without DOTAP

For GUAGGA, the “TNF-α response of human PBMC (in words)” value (human PBMC [1]; Example 1, FIG. 2, RNA 50 μg/ml, 16 hours) was “did not secrete significant amounts” and the “IL-12 p40 response of human PBMC (in words)” value (human PBMC [2]; Example 1, FIG. 1, 16 hours, RNA 50 μg/ml with and without DOTAP, R-848 2 μg/ml, LPS 1 μg/ml, Pam3Cys 5 μg/ml, poly IC 50 μg/ml) was “little, if any immunostimulatory effect”.
For GUAGGCAC, the “dose-response of TNF-α secretion” value (human PBMC [1]; 16 hours) was “increasing amounts” and the “dose-response of IL-12 p40 secretion” value (human PBMC [2]; 16 hours) was “increasing amounts”.
With GUG [R 1052] the EC50 (human PBMC [2]) was greater than 20 µM, the “IL-12 p40 max” value (human PBMC [2]) was 6000 pg/mL and the IFN-α max (human PBMC [3]; [4]) was 800 pg/mL. It also gave an EC50 (human PBMC [3]; [5]) of 5.5 µM.
In the case of GUGU [R 1051], the EC50 (human PBMC [2]) is reported as greater than 20 µM and the “IL-12 p40 max” value (human PBMC [2]) is reported as 14000 pg/mL.
In the case of GUGUG [R 1050], the TNF-α max (human PBMC [1]; [4]) is reported as 40000 pg/mL, the EC50 (human PBMC [1]; [6]) is reported as 7.6 µM and the EC50 (human PBMC [2]) is reported as 3.9 µM. For the same substance, the “IL-12 p40 max” value (human PBMC [2]) was 14000 pg/mL, the IFN-α max (human PBMC [3]; [4]) was 400 pg/mL and the EC50 (human PBMC [3]; [5]) was 6.9 µM.
GUGUGU [R 1049] showed a TNF-α max (human PBMC [1]; [4]) of 30000 pg/mL, an EC50 (human PBMC [1]; [6]) of 6.7 µM and an EC50 (human PBMC [2]) of 2.1 µM. The “IL-12 p40 max” value (human PBMC [2]) was 8000 pg/mL, the IFN-α max (human PBMC [3]; [4]) was 3400 pg/mL and the EC50 (human PBMC [3]; [5]) was 4.8 µM.
For GUGUGUG [R 1048], the TNF-α max (human PBMC [1]; [4]) was 30000 pg/mL, the EC50 (human PBMC [1]; [6]) was 2.2 µM and the EC50 (human PBMC [2]) was 2.6 µM. The “IL-12 p40 max” value (human PBMC [2]) was 10000 pg/mL, the IFN-α max (human PBMC [3]; [4]) was 2700 pg/mL and the EC50 (human PBMC [3]; [5]) was 4.6 µM.
GUGUGUGU [R 1058] was tested, and the “TNF-α + DOTAP max” value (human PBMC [1]; [7]) was 75000 pg/mL, the EC50 (human PBMC [1]; Table 1, human PBMC overnight culture, with DOTAP, read-out: TNF-α + DOTAP EC50) was 0.2 µM and the “TNF-α − DOTAP max” value (human PBMC [1]; [8]) was 3000 pg/mL. For the same substance, the EC50 (human PBMC [1]; Table 1, human PBMC overnight culture, without DOTAP, read-out: TNF-α − DOTAP EC50) was 1 µM, the “potency compared with R 1006 (cytokine induction in human PBMC)” value (human PBMC [1]; both with and without DOTAP) was “more potent” and the “IFN-α + DOTAP max” value (human PBMC [3]; [7]) was 3800 pg/mL. The EC50 (human PBMC [3]; Table 1, human PBMC overnight culture, with DOTAP, read-out: IFN-α + DOTAP EC50) was 0.5 µM, the “IFN-α − DOTAP max” value (human PBMC [3]; [8]) was 1500 pg/mL and the EC50 (human PBMC [3]; Table 1, human PBMC overnight culture, without DOTAP, read-out: IFN-α − DOTAP EC50) was 0.5 µM.
For GUGUUUAC, the “dose-response of TNF-α secretion” value (human PBMC [1]; 16 hours) was “increasing amounts” and the “dose-response of IL-12 p40 secretion” value (human PBMC [2]; 16 hours) was “increasing amounts”.
In the case of G_U_G_U_G_U_G_U [R 1057], the IFN-α max (human PBMC [3]; Table 3, internucleoside linkages, human PBMC overnight, including DOTAP) is reported as 6000 pg/mL and the EC50 (human PBMC [3]; Table 3, internucleoside linkages, human PBMC overnight, including DOTAP, read-out: IFN-α EC50) is reported as 0.1 µM.
With “SEQ ID NO:19: G,U-rich DNA oligonucleotide counterpart of SEQ ID NO:1 (GUUGUGGUUGUGGUUGUG; DNA oligonucleotide, linkage chemistry not given here, further chemistry not given here) [reference compound]” the “TNF response of human PBMC” value (human PBMC [1]; FIG. 15, 30 μM) was “not”.

Reference: patent US9428536B2, “Immunostimulatory G, U-containing oligoribonucleotides” (Zoetis Belgium SA, priority 2002, dated 2016)
